Experimental data taken from the supplement of paper PMC11451515.

What was measured:
SEM cells [1] = test: cell viability relative to DMSO control; higher = less cytotoxic; settings: 48 h
Method in brief: (§1)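 NOMO1 or SEM (500 cells/well) or P12-Ichikawa (1000 cells/well) leukemia cells were adapted for at least four passages in each medium. They were seeded in 1536-well plates (5 μl) and pin-dosed with library compounds in DMSO over an 11-point threefold series, 47 μM to 0.79 nM. CellTiter-Glo One luminescence was read after 48 h at 37°C. Viability is the per-plate percentage relative to DMSO wells, with cell-free wells as background.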

NOMO1 [2] = test: as above; settings: 48 h
Method in brief: as §1

P12-Ichikawa [3] = test: as above; settings: HPLM + 10% dialyzed FBS, 48 h
Method in brief: as §1

NOMO1 [4] = test: AUC of viability dose-response curve (% viability x log10 dose units); higher = less sensitive; settings: 48 h
Method in brief: (§2)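 In 1536-well plates, leukemia cells adapted to each medium (500 or 1000 cells/well) were exposed for 48 h at 37°C to library compounds in DMSO across 11 threefold doses, 47 μM down to 0.79 nM. Viability was read by CellTiter-Glo One luminescence and normalised per plate to DMSO and cell-free wells. A four-parameter log-logistic fit over log10 doses was integrated by trapezoidal rule. This yielded the area under the curve, with over-full-viability curves scaled and quality-control failures dropped.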

P12-Ichikawa [5] = test: as above; settings: 48 h
Method in brief: as §2

SEM cells [6] = test: as above; settings: 48 h
Method in brief: as §2

[7] = HPLM + 10% dialyzed FBS, 0.000781 µM
[8] = HPLM + 10% dialyzed FBS, 0.00234 µM
[9] = HPLM + 10% dialyzed FBS, 0.00702 µM
[10] = HPLM + 10% dialyzed FBS, 0.0211 µM
[11] = HPLM + 10% dialyzed FBS, 0.0632 µM
[12] = HPLM + 10% dialyzed FBS, 0.19 µM
[13] = HPLM + 10% dialyzed FBS, 0.569 µM
[14] = HPLM + 10% dialyzed FBS, 1.71 µM
[15] = HPLM + 10% dialyzed FBS, 5.12 µM
[16] = HPLM + 10% dialyzed FBS, 15.4 µM
[17] = HPLM + 10% dialyzed FBS, 46.1 µM
[18] = RPMI 5 mM glucose + 10% dialyzed FBS

For `Cc1nc2cc(C(=O)N3CCC4(CC3)CC(=O)c3c(cnn3C(C)C)C4)ccc2[nH]1`, the cell viability (SEM cells [1]; [7]) was 55.6%, the cell viability (SEM cells [1]; [8]) was 106% and the cell viability (SEM cells [1]; [9]) was 94.6%. It also gave a cell viability (SEM cells [1]; [10]) of 104%, a cell viability (SEM cells [1]; [11]) of 111% and a cell viability (SEM cells [1]; [12]) of 114%. The cell viability (SEM cells [1]; [13]) was 118%, the cell viability (SEM cells [1]; [14]) was 105% and the cell viability (SEM cells [1]; [15]) was 106%. It also gave a cell viability (SEM cells [1]; [16]) of 124%, a cell viability (SEM cells [1]; [17]) of 109% and a cell viability (SEM cells [1]; RPMI 5 mM glucose + 10% dialyzed FBS, 0.000781 µM) of 50%. It also gave a cell viability (SEM cells [1]; RPMI 5 mM glucose + 10% dialyzed FBS, 0.00234 µM) of 109%, a cell viability (SEM cells [1]; RPMI 5 mM glucose + 10% dialyzed FBS, 0.00702 µM) of 115% and a cell viability (SEM cells [1]; RPMI 5 mM glucose + 10% dialyzed FBS, 0.0211 µM) of 158%. For the same compound, the cell viability (SEM cells [1]; RPMI 5 mM glucose + 10% dialyzed FBS, 0.0632 µM) was 110%, the cell viability (SEM cells [1]; RPMI 5 mM glucose + 10% dialyzed FBS, 0.19 µM) was 122% and the cell viability (SEM cells [1]; RPMI 5 mM glucose + 10% dialyzed FBS, 0.569 µM) was 142%. The cell viability (SEM cells [1]; RPMI 5 mM glucose + 10% dialyzed FBS, 1.71 µM) was 122%, the cell viability (SEM cells [1]; RPMI 5 mM glucose + 10% dialyzed FBS, 5.12 µM) was 118% and the cell viability (SEM cells [1]; RPMI 5 mM glucose + 10% dialyzed FBS, 15.4 µM) was 126%. The cell viability (SEM cells [1]; RPMI 5 mM glucose + 10% dialyzed FBS, 46.1 µM) was 51.6%, the cell viability (NOMO1 [2]; [7]) was 96.7% and the cell viability (NOMO1 [2]; [8]) was 159%. For the same compound, the cell viability (NOMO1 [2]; [9]) was 125%, the cell viability (NOMO1 [2]; [10]) was 124% and the cell viability (NOMO1 [2]; [11]) was 116%. It also gave a cell viability (NOMO1 [2]; [12]) of 135%, a cell viability (NOMO1 [2]; [13]) of 134% and a cell viability (NOMO1 [2]; [14]) of 119%. For the same compound, the cell viability (NOMO1 [2]; [15]) was 112%, the cell viability (NOMO1 [2]; [16]) was 135% and the cell viability (NOMO1 [2]; [17]) was 60.9%. It also gave a cell viability (NOMO1 [2]; RPMI 5 mM glucose + 10% FBS, 0.000781 µM) of 118%, a cell viability (NOMO1 [2]; RPMI 5 mM glucose + 10% FBS, 0.00234 µM) of 133% and a cell viability (NOMO1 [2]; RPMI 5 mM glucose + 10% FBS, 0.00702 µM) of 116%. It also gave a cell viability (NOMO1 [2]; RPMI 5 mM glucose + 10% FBS, 0.0211 µM) of 130%, a cell viability (NOMO1 [2]; RPMI 5 mM glucose + 10% FBS, 0.0632 µM) of 129% and a cell viability (NOMO1 [2]; RPMI 5 mM glucose + 10% FBS, 0.19 µM) of 124%. For the same compound, the cell viability (NOMO1 [2]; RPMI 5 mM glucose + 10% FBS, 0.569 µM) was 123%, the cell viability (NOMO1 [2]; RPMI 5 mM glucose + 10% FBS, 1.71 µM) was 128% and the cell viability (NOMO1 [2]; RPMI 5 mM glucose + 10% FBS, 5.12 µM) was 135%. The cell viability (NOMO1 [2]; RPMI 5 mM glucose + 10% FBS, 15.4 µM) was 132%, the cell viability (NOMO1 [2]; RPMI 5 mM glucose + 10% FBS, 46.1 µM) was 94.2% and the cell viability (P12-Ichikawa [3]; 0.000781 µM) was 103%. For the same compound, the cell viability (P12-Ichikawa [3]; 0.00234 µM) was 121%, the cell viability (P12-Ichikawa [3]; 0.00702 µM) was 107% and the cell viability (P12-Ichikawa [3]; 0.0211 µM) was 120%. The cell viability (P12-Ichikawa [3]; 0.0632 µM) was 116%, the cell viability (P12-Ichikawa [3]; 0.19 µM) was 119% and the cell viability (P12-Ichikawa [3]; 0.569 µM) was 122%. The cell viability (P12-Ichikawa [3]; 1.71 µM) was 110%, the cell viability (P12-Ichikawa [3]; 5.12 µM) was 93.3% and the cell viability (P12-Ichikawa [3]; 15.4 µM) was 112%. For the same compound, the cell viability (P12-Ichikawa [3]; 46.1 µM) was 18%, the “AUC of viability dose-response curve” value (NOMO1 [4]; HPLM + 10% dialyzed FBS) was 465 and the “AUC of viability dose-response curve” value (NOMO1 [4]; RPMI 5 mM glucose + 10% FBS) was 471. The “AUC of viability dose-response curve” value (NOMO1 [4]; [18]) was 455, the “AUC of viability dose-response curve” value (P12-Ichikawa [5]; HPLM + 10% dialyzed FBS) was 457 and the “AUC of viability dose-response curve” value (P12-Ichikawa [5]; RPMI 5 mM glucose + 10% FBS) was 469. For the same compound, the “AUC of viability dose-response curve” value (P12-Ichikawa [5]; [18]) was 458.

In the case of `COc1ccc(C(=O)N2CCCC2=O)cc1`, the “AUC of viability dose-response curve” value (SEM cells [6]; HPLM + 10% dialyzed FBS) is reported as 449, the “AUC of viability dose-response curve” value (SEM cells [6]; RPMI 5 mM glucose + 10% FBS) is reported as 422 and the “AUC of viability dose-response curve” value (SEM cells [6]; [18]) is reported as 461. The “AUC of viability dose-response curve” value (NOMO1 [4]; HPLM + 10% dialyzed FBS) was 447, the “AUC of viability dose-response curve” value (NOMO1 [4]; RPMI 5 mM glucose + 10% FBS) was 456 and the “AUC of viability dose-response curve” value (NOMO1 [4]; [18]) was 467. The “AUC of viability dose-response curve” value (P12-Ichikawa [5]; HPLM + 10% dialyzed FBS) was 447, the “AUC of viability dose-response curve” value (P12-Ichikawa [5]; RPMI 5 mM glucose + 10% FBS) was 456 and the “AUC of viability dose-response curve” value (P12-Ichikawa [5]; [18]) was 439.

With `O=C(CCCCCCNC(=O)c1cnc(N(c2ccccc2)c2ccccc2)nc1)NO` the “AUC of viability dose-response curve” value (SEM cells [6]; HPLM + 10% dialyzed FBS) was 399, the “AUC of viability dose-response curve” value (SEM cells [6]; RPMI 5 mM glucose + 10% FBS) was 390 and the “AUC of viability dose-response curve” value (SEM cells [6]; [18]) was 392. The “AUC of viability dose-response curve” value (NOMO1 [4]; HPLM + 10% dialyzed FBS) was 417, the “AUC of viability dose-response curve” value (NOMO1 [4]; RPMI 5 mM glucose + 10% FBS) was 422 and the “AUC of viability dose-response curve” value (NOMO1 [4]; [18]) was 426. For the same compound, the “AUC of viability dose-response curve” value (P12-Ichikawa [5]; HPLM + 10% dialyzed FBS) was 393, the “AUC of viability dose-response curve” value (P12-Ichikawa [5]; RPMI 5 mM glucose + 10% FBS) was 386 and the “AUC of viability dose-response curve” value (P12-Ichikawa [5]; [18]) was 382.
